Among the data in ChEMBL document CHEMBL3507680, “University of Dundee, Gates Library screen for HepG2 cell viability” are cytotoxicity values, retold here.

The nature of this data set: Human HepG2 cell viability assay in 384 well format. In kind it is toxicity, cell-based. Also on record: dose 125 nL, time 70.5 hour; cytotoxicity at 70.5 h: concentration not given beside the values. The note with it: HepG2 cells, read-out: Inhibition.
Consider `CCCc1nc(CNCC2CCCN2c2cccnn2)cs1` (stereo unspecified), for which the cytotoxicity at 70.5 h was 11.9%.
Then `CN1CCC(Oc2ccc(NC(=O)c3ccccc3)cc2)CC1`, with -9.56%; and `COCCN1CCN(Cc2noc(C3CC3)n2)CC1C` (stereo unspecified), with 12.5%.
Take `Cc1cccc(NC(=O)NC2CCC3(C2)OCCO3)c1Cl` (stereo unspecified): the cytotoxicity at 70.5 h is -6.97%.
With `Cn1c(CCC(=O)N2CCCC3(CNC(=O)O3)C2)nc2cccnc21` (stereo unspecified), the cytotoxicity at 70.5 h is -14.8%.
Then `COCCn1ccnc1C1CCCN(c2cc(OC)nc(N)n2)C1` (stereo unspecified), with 31.1%; and `COCCn1ccc2ccc(NC(=O)NCc3noc(C)n3)cc21`, with 2.1%.
Then `CN(C)C(=O)N1CC2(CCOCC2)c2cc(NC(=O)CCO)ccc21`, with -0.169%.
Then `COCc1ccccc1CNc1nnc(C)c(C)c1C#N`, with 21.2%.
With `CN(C)C[C@@H]1CCC[C@@H]2CN(c3ncccn3)C[C@@H]21`, the cytotoxicity at 70.5 h was -13%.
As to `CN(C)[C@@H]1CCN(C(=O)c2cccn2C)[C@H]1Cc1cnn(C)c1`, the cytotoxicity at 70.5 h was -11.3%.
Then `Cc1cccc(-c2ccc(C(=O)N3CCN(C4CC4)CC3)c(=O)[nH]2)c1`, with 22.8%; and `Cc1ccsc1CN(Cc1ccccn1)CC(C)C`, with -6.06%.
Under `Cn1nc(CN2CCCCC(N)C2)c2c(Cl)cccc21` (stereo unspecified) stands 36.9%; under `O=C(Cn1cnc2ccsc2c1=O)c1ccc2c(c1)OCCO2`, -8.67%; under `Cc1cn2c(n1)CCC(NC(=O)CCn1cncn1)C2` (stereo unspecified), -8.43%.
Then `NCC1(c2cccc(C(F)(F)F)c2)CCCC1`, with 15.4%; and `O=C(Nc1cccc(F)c1)C1=NOC2(CCNCC2)C1`, with -4.38%.
On to `CN(C)c1cnn(CC(=O)N2Cc3ccccc3C2)c(=O)c1`, for which the cytotoxicity at 70.5 h worked out at 22%.
In the case of `CSc1ccccc1CN1C[C@@H]2CC[C@H](C1)N(CC1CC1)C2=O`, the cytotoxicity at 70.5 h worked out at 26.6%.
On to `Cc1cc(C)n2c(CNCCNc3ccccc3)cnc2n1`, for which the cytotoxicity at 70.5 h was -1.23%.
Under `CCCS(=O)(=O)N1CCC2(CCC(=O)N(Cc3ccccc3)C2)CC1` stands -4.86%.
Regarding `NC(=O)CNC(c1ccccc1)c1ccc(OC(F)F)cc1` (stereo unspecified), the cytotoxicity at 70.5 h amounted to 11.2%.
Under `Cc1nn(C)c2nc(N(Cc3nccs3)C3CC3)sc12` stands -15.9%; under `COc1cccc2c1OCC(CNC(=O)Cc1cnccn1)C2` (stereo unspecified), -3.59%.
`Cn1ccc(C(=O)NCc2ccccc2CN2CCCCC2)cc1=O`: the cytotoxicity at 70.5 h was -7.11%.
Under `OC[C@H]1CN(Cc2c(Cl)cncc2Cl)C[C@H]1CN1CCOCC1` stands -10.9%; under `CC(C)NC(=O)[C@H]1C[C@@H]2[C@@H](C1)OCCN2Cc1ccccn1`, -5.2%.
Then `Cc1ccc(C)n1-c1c(C(=O)NCC(C)Cn2cccn2)cnn1C` (stereo unspecified), with -21.4%; and `O=C(c1cc(F)cc(F)c1)N1CCC(O)(C(F)(F)F)CC1`, with 19.9%.
Take `Cn1ccnc1CN1CCC2(CC1)CN(c1ccccc1)C(=O)CO2`: the cytotoxicity at 70.5 h worked out at 4.73%.
Turning to `CC(c1cc(F)ccc1F)N1CCN(Cc2nccn2C)CC1` (stereo unspecified), the cytotoxicity at 70.5 h is 2.5%.
Turning to `COc1ncnc2c1CCN(Cc1cccs1)CC2`, the cytotoxicity at 70.5 h is -2.23%.
Under `Cc1noc(C)c1C(C)NC(=O)N1CCN(c2cccs2)CC1` (stereo unspecified) stands 6.76%; under `CN1C(=O)CC(c2ccccc2)C12CCN(c1ncccn1)CC2` (stereo unspecified), 27.6%.
As to `O=C(CCc1ccc(F)c(F)c1)N1CCCCC1Cn1cccn1` (stereo unspecified), the cytotoxicity at 70.5 h is -7.69%.
Then `Cc1ccc(Cl)cc1N1CCC(CNC(=O)CCn2ccnn2)C1` (stereo unspecified), with -6.67%; and `OCCN1CCC(CNCCOCC(F)(F)F)CC1`, with 3.98%.
Consider `COCCNC(=O)Cn1nc(C(C)C)c2cnn(C(C)(C)C)c2c1=O`, for which the cytotoxicity at 70.5 h is -3.75%.
`CC(=O)N1CC2(CCCC2)c2ccccc21`: the cytotoxicity at 70.5 h was -3.2%.
As to `CSCC(C)NS(=O)(=O)c1ccc(C)c(N(C)C)c1` (stereo unspecified), the cytotoxicity at 70.5 h was -4.35%.
Under `Cc1[nH]nc(CCC(=O)NCC2COc3ccccc3C2)c1C` (stereo unspecified) stands -6.82%; under `Cc1nc(-c2ccc(S(=O)(=O)N3CCC4(CC3)OCCO4)cc2)co1`, -7.29%.
On to `CN1CCC(N2CC[C@H](c3nc4ccc(C(F)(F)F)cc4[nH]3)C2)CC1`, for which the cytotoxicity at 70.5 h was -13.2%.
Consider `COc1ccc(C(=O)N2CCCC3(CCCC(=O)N3C)C2)cc1` (stereo unspecified), for which the cytotoxicity at 70.5 h is -6.78%.
For the compound `Cc1ccccc1CN(CCN(C)C)Cc1ccc(C(=O)O)cc1`, the cytotoxicity at 70.5 h was -5.98%.
On to `CC(C)(C)c1noc(CN2CCCC(CNS(N)(=O)=O)C2)n1` (stereo unspecified), for which the cytotoxicity at 70.5 h is -2.1%.
Then `CC(C)c1cc(NC(=O)CN2CCc3cncnc3C2)on1`, with -11.7%.
Then `COc1ccc(F)cc1C(=O)N1CCC2(CCC(=O)N(C(C)C)C2)CC1`, with -5.66%; and `CC(C)n1cnnc1SCCN(C)c1ccccc1`, with -6.85%.
As to `O=C(CCCNc1ncccn1)N1CCCC(n2ccnc2)C1` (stereo unspecified), the cytotoxicity at 70.5 h is -3.12%.
With `O=C1CCSCC(C(=O)N2CCC(O)CC2)N1` (stereo unspecified), the cytotoxicity at 70.5 h was -10.8%.
On to `O=C(CC1CCCC1)Nc1ccc(-n2cc(Br)cn2)nc1`, for which the cytotoxicity at 70.5 h was -2.32%.
Then `Cc1cc(N2CCC(c3ncc[nH]3)CC2)nc(N)n1`, with -2.19%.
Then `O=c1c2cnc(N3CCCCC3)nc2ccn1Cc1ccco1`, with -7.45%; and `CCOCc1nc2c(c(NCc3cc(C)on3)n1)CCN(C(C)=O)CC2`, with -7.96%; and `c1ccc(-c2nc(CN3CCOC(Cn4cccn4)C3)co2)cc1` (stereo unspecified), with 4.42%.
Then `Cc1ccc(C(=O)N(C)Cc2cc(C)on2)cn1`, with -2.86%.
In the case of `O=C(CN1C[C@H]2C[C@H](OCc3ccccc3)C[C@H]2C1)N1CCOCC1`, the cytotoxicity at 70.5 h was -4.18%.
For `Cc1nn(C)cc1S(=O)(=O)NCC(C)Cn1cc(Cl)cn1` (stereo unspecified), the cytotoxicity at 70.5 h worked out at 3.54%.
As to `CSc1sc2c(O)cc(=O)[nH]c2c1C(N)=O`, the cytotoxicity at 70.5 h came out at 11.3%.
Then `Cc1cc(NC(=O)c2ccc(F)cc2Br)n(C)n1`, with -4.35%.
For `CC(NC(=O)CCc1cccs1)c1nnc2n1CCCCC2` (stereo unspecified), the cytotoxicity at 70.5 h stood at 8.51%.
Under `Cc1nnc([C@@H]2CC[C@@H]3[C@@H](CCN3S(=O)(=O)c3cccnc3)O2)o1` stands 0.577%; under `CN(C)CCn1ccnc1C1CCN(C(=O)CCc2cccnc2)CC1`, -4.1%; under `CC(Cn1ccnc1)NC(=O)C1(c2ccc(F)cc2)CCCC1` (stereo unspecified), -7.69%.
For `CCCc1nnc(NCCc2noc(C3CCC3)n2)o1`, the cytotoxicity at 70.5 h is -10.7%.
Under `CSc1ncc(C(=O)N2CCC(O)(CN3CCOCC3)C(C)(C)C2)cn1` (stereo unspecified) stands -0.923%; under `Cc1cc(C)n(CC2CN(CC(=O)NC3(C#N)CCCC3)CCO2)n1` (stereo unspecified), -3.7%; under `Cc1ccc(-c2cc(C3CCNCC3)nc(C)n2)cc1`, -6.7%.
Then `CCc1n[nH]c(C2CN(C(=O)CCc3cccs3)CCO2)n1` (stereo unspecified), with 13.9%; and `CCc1[nH]c2c(CNc3nccc(N)n3)cc(C)cc2c1C`, with 23.9%; and `CN(C)S(=O)(=O)CCCN1CCc2c(ncn2C2CC2)C1`, with 9.65%.
Under `Cc1cnn(CC2CCCCN2Cc2nc(C)c3ccccc3n2)c1` (stereo unspecified) stands -1.81%; under `COc1ccc(NC(=O)CNc2ccc(Br)cc2F)cc1`, -1.21%; under `COc1cccc(COCC(=O)NC(C(N)=O)c2ccccc2)c1` (stereo unspecified), 3.41%.
For `Cc1nc(CSCCC(=O)NCC(=O)NC(C)C)cs1`, the cytotoxicity at 70.5 h is 1.26%.
Then `COc1cc(CNCC(O)c2ccc(C)cc2)cc2c1OCCO2` (stereo unspecified), with 4.82%; and `COc1cc(NC(=O)N2CCCC2c2ccco2)cc(OC)c1` (stereo unspecified), with -8.23%.
For `CCCNC(=O)c1ccc2c(c1)C(=O)N(CC(C)C)C2=O`, the cytotoxicity at 70.5 h was -1.77%.
For the compound `O=C(CC1CCCO1)NCCCC(=O)Nc1ccc(Cl)cc1` (stereo unspecified), the cytotoxicity at 70.5 h was -7.07%.
Under `Cc1cc(C(=O)NCCN2CCC(C)CC2)nn1C(C)(C)C` stands -15.3%.
Take `Cc1c(-c2ccccc2)ncn1CCCNc1cccnc1`: the cytotoxicity at 70.5 h is -4.84%.
Under `CCn1cc(C(=O)NCCc2nc(-c3ccc(C)cc3)n[nH]2)c(C)n1` stands -4.26%.
Under `CC(C)Cn1cc(NC(=O)N2CCCC2)cn1` stands 0.273%; under `COc1ccc(C)cc1CNC(=O)C1=NN(c2ccccc2)C(=O)CN1`, -5.19%; under `CC(=O)N(C)c1nc(CN2CCCC2Cn2cncn2)cs1` (stereo unspecified), -2.86%.
Then `CCn1ncnc1C(C)NC(=O)C1CCN(C2CCCCC2)CC1` (stereo unspecified), with -7.1%; and `Cn1cccc1C(=O)N1C[C@@H]2COC[C@]2(CNS(C)(=O)=O)C1`, with -1.05%.
As for `O=C(Nc1cc(F)ccc1OCC1CCCO1)N1CCCC1` (stereo unspecified), the cytotoxicity at 70.5 h is -17.1%.
Under `CCN(c1ccsc1C(=O)N1CCSCC1)S(=O)(=O)c1ccc(Cl)cc1` stands -3.47%; under `CCCC(NC(=O)c1ccccn1)c1nnc2ccccn12` (stereo unspecified), -12.2%.
In the case of `O=C1COC2(CCN(c3ccccn3)CC2)CN1`, the cytotoxicity at 70.5 h is -19.6%.
Regarding `O=C(c1cccnc1)N1CCCC1c1nc(O)cc(-c2ccccn2)n1` (stereo unspecified), the cytotoxicity at 70.5 h was -6.66%.
Consider `Cc1nc2c(c(C)c1CC(=O)NCc1cccs1)c(=O)[nH]n2C`, for which the cytotoxicity at 70.5 h was -1.43%.
Then `COCCN(Cc1ccccc1)c1cc(C)ncn1`, with -6.25%.
Regarding `CCNC(=O)NC1CN(Cc2ccccc2N(C)C)C[C@@H]1OC` (stereo partly specified), the cytotoxicity at 70.5 h was determined as 5.63%.
Under `O=C(O)c1ccn(-c2ccccc2NS(=O)(=O)c2ccccc2)n1` stands -0.995%; under `CC(C)CC(NC(=O)c1ccc[nH]1)C(=O)N1CCC(CO)CC1` (stereo unspecified), -11.2%.
Take `CC(C)(C)c1n[nH]c(C2CN(C(=O)c3cc(C4CC4)on3)CCO2)n1` (stereo unspecified): the cytotoxicity at 70.5 h is 28.3%.
Under `COCc1ccccc1C(=O)N1CCCC(c2cc(C)[nH]n2)C1` (stereo unspecified) stands 26.2%.
